In ChEMBL document CHEMBL1687908, “Discovery of sulfated sterols from marine invertebrates as a new class of marine natural antagonists of farnesoid-X-receptor” (J Med Chem, 2011):
The source made the active and inactive calls.

Key:
Assay type in all cases: functional, cell-based
HepG2 = assay: Inhibition of CDCA-induced FXR expression in human HepG2 cells after 18 hrs by luminometric analysis
[1] = biological target: T1, Bile acid receptor (Homo sapiens) (UniProt Q96RI1); assay: Antagonist activity at FXR in human HepG2 cells assessed as inhibition of CDCA-induced OSTbata gene expression at 50 uM by real time PCR
T1 sequence (whole entry): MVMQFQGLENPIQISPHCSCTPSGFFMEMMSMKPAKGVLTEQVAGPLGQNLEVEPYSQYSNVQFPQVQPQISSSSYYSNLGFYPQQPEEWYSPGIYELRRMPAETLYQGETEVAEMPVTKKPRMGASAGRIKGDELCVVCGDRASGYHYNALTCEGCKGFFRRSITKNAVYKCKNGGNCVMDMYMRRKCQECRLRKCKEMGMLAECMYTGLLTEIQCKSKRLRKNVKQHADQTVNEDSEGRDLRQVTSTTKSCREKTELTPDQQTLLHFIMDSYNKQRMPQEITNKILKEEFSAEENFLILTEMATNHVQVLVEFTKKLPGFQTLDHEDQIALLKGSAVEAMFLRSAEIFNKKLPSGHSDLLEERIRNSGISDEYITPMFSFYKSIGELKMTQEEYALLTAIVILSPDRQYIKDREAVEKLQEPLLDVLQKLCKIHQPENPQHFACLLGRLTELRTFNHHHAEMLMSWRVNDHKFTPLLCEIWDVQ

[2] = biological target: T1, Bile acid receptor (Homo sapiens); assay: Antagonist activity at FXR in human HepG2 cells assessed as inhibition of CDCA-induced Cyp7A1 gene expression at 50 uM by real time PCR
[3] = biological target: T1, Bile acid receptor (Homo sapiens); assay: Antagonist activity at FXR in human HepG2 cells assessed as inhibition of CDCA-induced BSEP gene expression at 50 uM by real time PCR
[4] = biological target: T1, Bile acid receptor (Homo sapiens); assay: Antagonist activity at FXR in human HepG2 cells assessed as inhibition of CDCA-induced OSTalpha gene expression at 50 uM by real time PCR
[5] = biological target: T1, Bile acid receptor (Homo sapiens); assay: Antagonist activity at FXR expressed in human HepG2 cells assessed as stabilization of the NCoR at the OSTalpha promoter at 50 uM after 18 hrs by chromatin immunoprecipitation

C[C@H](CO)[C@@H](C)CC[C@@H](COS(=O)(=O)O)[C@H]1CC[C@H]2[C@@H]3CC[C@@H]4[C@H](O)[C@H](OS(=O)(=O)O)CC[C@]4(C)[C@H]3CC[C@]12C
active: inhibition (HepG2) Dose-dependent effect | inhibition [1] | inhibition [2] | inhibition [3] | inhibition [4] | Activity [5]
